Laboratory results: PMC12406255, “Engineering Peptide Modulators for T‑Cell Migration by Structural Scaffold Matching” (Journal of Medicinal Chemistry, 2025)
Where two headings read alike, the source gives them in different places. Positions of bridges follow the written chain, without caps; N, C: chain ends. Non-standard residues stand in square brackets, D forms with d. Residues, ends and D or L forms follow the SMILES beside them. No end group written: not given here. Nle = CCCC[C@H](N)C(=O)O

How the values were obtained:
CD3+ lymphocytes = test: cells; type: cell-based, human; conditions: for % Inhibition of cell migration compared to control, CD3+: normalized to untreated control, mean ± SEM of 4-6 experiments
Experimental: 1 Transwell-based migration assay to study lymphocyte transendothelial migration. (A) The general principle of the transwell migration assay is depicted. Endothelial cells (EC) are seeded in transwell inserts and are incubated for 2 days to form an EC monolayer. On the day before the assay, the ECs are cytokine-stimulated to induce the expression of adhesion molecules. In the migration assay, human peripheral blood mononuclear cells (PBMC) are placed into the donor compartment of the transwell setup. After 4 h of incubation time, the migrated cells are harvested from the receiver compartment, stained with fluorescent antibodies and counted using flow cytometry. (B) PBMCs were preincubated with S1P for 1.5 h and then transferred into the donor compartment on top of the EC monolayer. […] Data are shown as mean ± SD of 3 to 5 independent experiments.
(§1) Transwell migration assays were performed similarly as published previously. HMEC-1 cells were seeded at a density of 75,000 cells per well in transwell inserts. Three days after cell seeding, the medium was changed, and the cells were stimulated with 100 ng/mL TNF-α and 20 ng/mL IFN-γ for 16–18 h. On the day of the assay, cells were washed with migration medium (serum-free RPMI medium supplemented with 0.1% BSA) to remove residual cytokines and starved for at least 1 h at 37 °C in migration medium. PBMC were starved for at least 1.5 h in migration medium before addition to the EC. For S1P and lifitegrast-treated samples, the PBMC were preincubated for at least 1.5 h at 37 °C with the ligands before addition to the EC. Pepitem and other peptides were added onto the EC monolayer and preincubated for 15–30 min at 37 °C before the addition of the PBMC. 200,000 PBMC per well were added directly on top of the EC prestimulated with pepitem or other peptides to reach a final volume of 150 μL in the donor compartments. The receiver compartments of the wells were filled with 600 μL RPMI with 20% FBS. After 4 h of migration at 37 °C, the receiver compartment with the migrated cells was collected. The migrated cells were stained with the indicated antibodies: CD3-APC (clone: OKT3, lot: B400127), CD4-PE (clone: OKT4. lot: B379180), CD8-FITC (clone: HIT8a, lot: B370193) from Biolegend and CD3-VioGreen (clone: REA613, lot: 5240502518), CD45RO-FITC (clone: REA611, lot: 5240502519), CD4-PerCP-Vio700 (clone: REA623, lot: 5240506702), CXCR3 PE-Vio615 (clone: REA232, lot: 5240506722), CD196-APC (clone: REA190, lot: 5240506717), CD8-APC-Vio770 (clone: REA734, lot: 5240303993) and CD45RO-PEVio616 (clone: REA611, lot: 5231102514) from Miltenyi Biotec (Bergisch Gladbach, Germany) and counted using precision counting beads (Biolegend) on a CytoflexS flow cytometer (BeckmanCoulter). Data was analyzed using CytExpert (Version 2.4). T cells were gated as CD3^+ cells, T cell subsets were gated as CD4^+ (CD3^+, CD4^+), CD8^+ (CD3^+, CD8^+), memory CD4^+ (CD3^+, CD4^+, CD45RO^+), memory CD8^+ (CD3^+, CD8^+, CD45RO^+) and Th1 cells (CD3^+, CD4^+, CXCR3^+, CCR6^–).
(§2) Data were analyzed using GraphPad Prism software. EC50 values were calculated by three-parameter nonlinear regression analysis. For this, the data points were normalized to the number of migrated cells in untreated (buffer) control samples (100%), and the regression was fitted with the top constraint to 100 and the slope fixed to 1. Statistical significance is indicated in graphs as n.s. not significant, * p < 0.05; ** p < 0.01; *** p < 0.001. The statistical tests used are indicated in the respective figure captions.

[1] = system: CD4+ lymphocytes (CD3+, CD4+); type: cell-based, human; conditions: normalized to untreated control, mean ± SEM of 4-6 experiments
Experimental: as §1, §2

[2] = system: CD8+ lymphocytes (CD3+, CD8+); type: cell-based, human; conditions: normalized to untreated control, mean ± SEM of 4-6 experiments
Experimental: as §1, §2

[3] = system: memory CD4+ cells (CD3+, CD4+, CD45RO+); type: cell-based, human; conditions: normalized to untreated control, mean ± SEM of 4-6 experiments
Experimental: as §1, §2

[4] = system: memory CD8+ cells (CD3+, CD8+, CD45RO+); type: cell-based, human; conditions: normalized to untreated control, mean ± SEM of 4-6 experiments
Experimental: as §1, §2

Serum stability assay = type: in vitro ADME; conditions: human serum of healthy donors, lipids removed by centrifugation, 37 °C, peptide 30-60 μM from 10-fold stock in PBS, followed over 48 h, urea/TFA quench, analytical RP-HPLC peak area vs time 0, one-phase decay fit, mean ± SD, n = 2 (pepitem n = 5); for half-life: read-out: Serum t 1/2 (converted)
Experimental: Stability of peptides in human serum was measured similarly to that previously described. In short, fresh blood from healthy donors was collected in serum collection tubes (Clot Activator Tube, Becton Dickinson, Plymouth, United Kingdom, […]) and incubated at 4 °C for 2 h to allow blood clotting. The serum was separated by centrifugation at 1000 × g for 10 min. To remove lipids from the serum, an additional centrifugation step was performed at 15,000 × g for 15 min at 4 °C, after which the serum was used for the stability assays. For this, the serum was prewarmed for 10 min at 37 °C before the addition of the test compounds. Peptides were prepared at a 10-fold concentration in PBS and diluted to a final concentration between 60 and 30 μM with the serum. The serum-peptide reaction mix was incubated at 37 °C, and 40 μL aliquots were taken at the indicated time points. To stop the reaction, samples were mixed with 40 μL of 6 M urea for 10 min on ice, followed by precipitation of serum proteins by the addition of 40 μL of 20% TFA and incubation for at least 10 min on ice. The precipitate was pelleted at 15,000 × g for 15 min, and 90 μL of the supernatant was freeze-dried. The dry material was resuspended in HPLC solvent A (0.1% TFA in ddH2O). Peptide quantification was performed using analytical HPLC. The remaining peptide relative to the starting point (time point 0) was calculated by peak integration to determine the area under the peak at the designated time points and further calculated in comparison to time point 0 min, which was set as 100%. To calculate the half-life of the peptides in human serum, data points were fitted with a one-phase decay equation.

[5] = Homo sapiens, Lymphocyte, PBMC preincubated with ligand for 1.5 h, then added onto EC monolayer, 4 h migration, mean ± SD, 3 or more experiments, read-out: EC50, inhibition of CD3+ cell migration

Molecule	EC50 (CD3+ lymphocytes; [5])	half-life (Serum stability assay)	EC50 (CD3+ lymphocytes; 4 h)	Serum t 1/2 (Serum stability assay)	% Inhibition of cell migration compared to control, CD3+ (CD3+ lymphocytes; 0.1 μM)	% Inhibition of cell migration compared to control, CD3+ (CD3+ lymphocytes; 1 μM)	effects on T-lymphocyte migration (in words) (CD3+ lymphocytes; two concentrations (0.1 and 1 μM), equal to untreated control)	% Inhibition of cell migration compared to control, CD4+ ([1]; 0.1 μM)	% Inhibition of cell migration compared to control, CD4+ ([1]; 1 μM)	% Inhibition of cell migration compared to control, CD8+ ([2]; 0.1 μM)	% Inhibition of cell migration compared to control, CD8+ ([2]; 1 μM)	% Inhibition of cell migration compared to control, Memory CD4+ ([3]; 0.1 μM)	% Inhibition of cell migration compared to control, Memory CD4+ ([3]; 1 μM)	% Inhibition of cell migration compared to control, Memory CD8+ ([4]; 0.1 μM)	% Inhibition of cell migration compared to control, Memory CD8+ ([4]; 1 μM)
CCCCCCCCCCCCC/C=C/[C@@H](O)[C@@H](N)COP(=O)(O)O [Sphingosine-1-phosphate, reference compound]	54.6 ± 49.1 nM	–	–	–	–	–	–	–	–	–	–	–	–	–	–
CCCC[C@@H]1NC(=O)[C@H](C(C)C)NC(=O)[C@H](CCCCN)NC(=O)[C@@H](NC(=O)[C@H](CCC(N)=O)NC(=O)[C@H](CCC(=O)O)NC(C)=O)CSSC[C@@H](C(=O)N[C@@H](CCC(=O)O)C(=O)N[C@@H](CCCCN)C(N)=O)NC(=O)[C@H](CC(N)=O)NC(=O)[C@H](CC(=O)O)NC(=O)[C@H](CC(C)C)NC(=O)[C@@H]2CSSC[C@H](NC1=O)C(=O)N[C@@H](Cc1ccc(O)cc1)C(=O)N[C@@H](C)C(=O)N[C@@H](CCC(N)=O)C(=O)N[C@@H](CCCNC(=N)N)C(=O)N[C@@H](Cc1c[nH]cn1)C(=O)N[C@@H](CO)C(=O)N[C@@H](CO)C(=O)N1CCC[C@H]1C(=O)N[C@@H](CCC(=O)O)C(=O)N[C@@H](CC(C)C)C(=O)N[C@@H](CC(C)C)C(=O)N[C@@H](CCCNC(=N)N)C(=O)N[C@@H](CCCNC(=N)N)C(=O)N2 [VhTI variant, reference compound] (Ac-EQCKV[Nle]CYAQRHSSPELLRRCLDNCEK-NH2; disulfide 3-25, 7-21)	–	15.4 ± 12.9 h	–	–	–3.9 ± 7.0%	–5.2 ± 10.7%	no effects	–7.8 ± 9.4%	–6.7 ± 7.0%	1.6 ± 8.5%	–2.8 ± 15.8%	–3.5 ± 2.4%	–11.6 ± 13.2%	4.7 ± 7.4%	–11.6 ± 7.2%
CCCC[C@@H]1NC(=O)[C@H](C(C)C)NC(=O)[C@H](CCCCN)NC(=O)[C@@H](NC(=O)[C@H](CCC(N)=O)NC(=O)[C@H](CCC(=O)O)NC(C)=O)CSSC[C@@H](C(=O)N[C@@H](CCC(=O)O)C(=O)N[C@@H](CCCCN)C(N)=O)NC(=O)[C@H](CC(N)=O)NC(=O)[C@H](CC(=O)O)NC(=O)[C@H](CC(C)C)NC(=O)[C@@H]2CSSC[C@H](NC1=O)C(=O)N[C@@H](Cc1ccc(O)cc1)C(=O)N[C@@H](C)C(=O)N[C@@H](CCC(N)=O)C(=O)NCC(=O)N[C@@H](C)C(=O)N[C@@H](CCC(=O)O)C(=O)N[C@@H](CC(C)C)C(=O)N[C@@H](CO)C(=O)N1CCC[C@H]1C(=O)N[C@@H](CCC(=O)O)C(=O)N[C@@H](CC(C)C)C(=O)N[C@@H](CC(C)C)C(=O)N[C@@H](CCCNC(=N)N)C(=O)N[C@@H](CCCNC(=N)N)C(=O)N2 [VhTI-pep 1] (Ac-EQCKV[Nle]CYAQGAELSPELLRRCLDNCEK-NH2; disulfide 3-26, 7-22)	–	> 48 h	–	–	25.6 ± 6.4%	33.4 ± 8.5%	–	23.5 ± 9.7%	30.3 ± 14.7%	34.6 ± 8.0%	38.4 ± 2.4%	15.1 ± 14.2%	39.5 ± 11.6%	21.2 ± 3.1%	29.6 ± 6.7%
SVTEQGAELSNEER [Pepitem, reference compound]	–	~3 h	6 ± 6.4 nM	3.1 ± 0.5 h	–	–	–	–	–	–	–	–	–	–	–

Further lines, with some results ahead:

EC50 (CD3+ lymphocytes; [5])	half-life (Serum stability assay)	EC50 (CD3+ lymphocytes; 4 h)	Serum t 1/2 (Serum stability assay)	Molecule	% Inhibition of cell migration compared to control, CD3+ (CD3+ lymphocytes; 0.1 μM)	% Inhibition of cell migration compared to control, CD3+ (CD3+ lymphocytes; 1 μM)	effects on T-lymphocyte migration (in words) (CD3+ lymphocytes; two concentrations (0.1 and 1 μM), equal to untreated control)	% Inhibition of cell migration compared to control, CD4+ ([1]; 0.1 μM)	% Inhibition of cell migration compared to control, CD4+ ([1]; 1 μM)	% Inhibition of cell migration compared to control, CD8+ ([2]; 0.1 μM)	% Inhibition of cell migration compared to control, CD8+ ([2]; 1 μM)	% Inhibition of cell migration compared to control, Memory CD4+ ([3]; 0.1 μM)	% Inhibition of cell migration compared to control, Memory CD4+ ([3]; 1 μM)	% Inhibition of cell migration compared to control, Memory CD8+ ([4]; 0.1 μM)	% Inhibition of cell migration compared to control, Memory CD8+ ([4]; 1 μM)
–	> 48 h	–	–	CCCC[C@@H]1NC(=O)[C@H](C(C)C)NC(=O)[C@H](CCCCN)NC(=O)[C@@H](NC(=O)[C@H](CCC(N)=O)NC(=O)[C@H](CCC(=O)O)NC(C)=O)CSSC[C@@H](C(=O)N[C@@H](CCC(=O)O)C(=O)N[C@@H](CCCCN)C(N)=O)NC(=O)[C@H](CC(N)=O)NC(=O)[C@H](CC(=O)O)NC(=O)[C@H](CC(C)C)NC(=O)[C@@H]2CSSC[C@H](NC1=O)C(=O)N[C@@H](Cc1ccc(O)cc1)C(=O)N[C@@H](CCC(=O)O)C(=O)N[C@@H](CCC(N)=O)C(=O)NCC(=O)N[C@@H](C)C(=O)N[C@@H](CCC(=O)O)C(=O)N[C@@H](CC(C)C)C(=O)N1CCC[C@H]1C(=O)N[C@@H](CCC(=O)O)C(=O)N[C@@H](CC(C)C)C(=O)N[C@@H](CC(C)C)C(=O)N[C@@H](CCCNC(=N)N)C(=O)N[C@@H](CCCNC(=N)N)C(=O)N2 [VhTI-pep 3] (Ac-EQCKV[Nle]CYEQGAELPELLRRCLDNCEK-NH2; disulfide 3-25, 7-21)	1.5 ± 7.6%	4.6 ± 10.6%	–	–8.9 ± 18.1%	10.8 ± 10.1%	10.4 ± 11.2%	14.0 ± 13.8%	–8.7 ± 3.4%	11.7 ± 10.6%	3.9 ± 9.7%	3.0 ± 11.6%
2.2 ± 3.6 nM	–	–	–	CS(=O)(=O)c1cccc(C[C@H](NC(=O)c2c(Cl)cc3c(c2Cl)CCN(C(=O)c2ccc4ccoc4c2)C3)C(=O)O)c1 [lifitegrast, reference compound]	–	–	–	–	–	–	–	–	–	–	–
